Measurements: ChEMBL document CHEMBL3217663, “Evaluation of FR901464 analogues in vitro and in vivo” (Medchemcomm, 2011)
Active and inactive are the calls of the source. The rule behind the calls is not given here.

What was measured:
HCT-116 [1] = assay: Antiproliferative activity against human HCT116 cells assessed as growth inhibition after 24 to 72 hrs by MTS assay; format: functional
P388 = assay: Antiproliferative activity against mouse P388 cells assessed as growth inhibition after 24 to 72 hrs by MTS assay; format: functional
MCF7 = assay: Antiproliferative activity against human MCF7 cells assessed as growth inhibition after 24 to 72 hrs by MTS assay; format: functional
A549 = assay: Antiproliferative activity against human A549 cells assessed as growth inhibition after 24 to 72 hrs by MTS assay; format: functional
[2] = Therapeutic index, ratio of GI50 for human HCT116 cells to GI50 for HUVEC; format: cell-based, HCT-116; settings: HCT116 cells and HUVEC cells, read-out: RatioGI50
[3] = Therapeutic index, ratio of GI50 for human HCT116 cells to GI50 for NHLF; format: cell-based, HCT-116; settings: HCT116 cells and NHLF cells, read-out: RatioGI50
[4] = Plasma concentration in mouse at 6 mg/kg, iv upto 4 hrs; format: ADME, organism-based; design: dose 6 mg/kg, route intravenous
[5] = Therapeutic index, ratio of GI50 for human HCT116 cells to GI50 for NHDF; format: cell-based, HCT-116; settings: HCT116 cells and NHDF cells, read-out: RatioGI50
[6] = Antiproliferative activity against NHLF assessed as growth inhibition after 24 to 72 hrs by MTS assay; settings: human, NHLF cells
[7] = Antiproliferative activity against NHDF assessed as growth inhibition after 24 to 72 hrs by MTS assay; format: cell-based; settings: human, NHDF cells
MDA-MB-231 = assay: Antiproliferative activity against human MDA-MB-231 cells assessed as growth inhibition after 24 to 72 hrs by MTS assay; format: functional
[8] = Antiproliferative activity against HMEC assessed as growth inhibition after 24 to 72 hrs by MTS assay; format: cell-based; settings: human, HMEC cells
[9] = Therapeutic index, ratio of GI50 for human HCT116 cells to GI50 for HMEC; format: cell-based, HCT-116; settings: HCT116 cells and HMEC cells, read-out: RatioGI50
[10] = Antiproliferative activity against HUVEC assessed as growth inhibition after 24 to 72 hrs by MTS assay; format: cell-based; settings: human, HUVEC cells
HCT-116 [11] = assay: Antitumor activity against human HCT116 cells xenografted in NCr-nu/nu mouse assessed as tumor inhibition rate measured on day 41 at 6 mg/kg, iv once every 4 days for 3 injections after 16 days of tumor cell transplantation; format: functional
[12] = Half life in mouse serum; format: ADME
Mus musculus [13] = assay: Toxicity in mouse assessed as body weight loss at 3 mg/kg, iv once every 4 days for 3 injections; format: organism-based; design: dose 3 mg/kg, route intravenous; settings: in vivo, 96 h
Mus musculus [14] = assay: Toxicity in mouse assessed as death at 0.5 mg/kg, iv led to the euthanization of mouse on day 9; format: organism-based, NCr; design: dose 0.5 mg/kg, route intravenous; settings: in vivo
Mus musculus [15] = assay: Toxicity in mouse assessed as body weight loss at 1 mg/kg, iv once every 4 days for 3 injections; format: organism-based; design: dose 1 mg/kg, route intravenous; settings: in vivo, 96 h
[16] = Toxicity in mouse assessed as tolerated dose compound treated once daily for 5 consecutive days; format: organism-based; settings: in vivo
Mus musculus [17] = assay: Toxicity in mouse assessed as death at >= 1.5 mg/kg, iv compound treated once daily for 5 consecutive days; format: organism-based; design: dose 1.5 mg/kg, route intravenous; settings: in vivo
Mus musculus [18] = assay: Toxicity in mouse assessed as death at 0.03 to 3 mg/kg, iv once every 4 days for 3 injections; format: organism-based; design: dose 0.03-3 mg/kg, route intravenous; settings: in vivo, 96 h
Mus musculus [19] = assay: Toxicity in mouse assessed as body weight loss at 0.5 mg/kg, iv led to the euthanization of mouse on day 9; format: organism-based; design: dose 0.5 mg/kg, route intravenous; settings: in vivo
HCT-116 [20] = assay: Antitumor activity against human HCT116 cells xenografted in NCr-nu/nu mouse assessed as tumor weight reduction at 1.5 to 3 mg/kg, iv once every 4 days for 3 injections after 16 days of tumor cell transplantation; format: functional, organism-based
[21] = Plasma concentration in mouse at 6 mg/kg, iv after 30 mins; format: ADME, organism-based; design: dose 6 mg/kg, route intravenous
PC-3 = assay: Antitumor activity against human PC3 cells xenografted in NCr-nu/nu mouse assessed as tumor weight reduction measured on day 22 at 1 mg/kg, iv once daily for 5 injections; format: functional; settings: PC-3, 528 h
HCT-116 [22] = assay: Antitumor activity against human HCT116 cells xenografted in NCr-nu/nu mouse assessed as tumor inhibition rate measured on day 41and 44 at 15 mg/kg, iv once daily for 5 injections after 16 days of tumor cell transplantation; format: functional; settings: HCT-116, 384 h
Mus musculus [23] = assay: Toxicity in mouse assessed as body weight loss at 0.03 to 3 mg/kg, iv once every 4 days for 3 injections; format: organism-based; design: dose 0.03-3 mg/kg, route intravenous; settings: in vivo, 96 h
HCT-116 [24] = assay: Antitumor activity against human HCT116 cells xenografted in NCr-nu/nu mouse assessed as tumor weight reduction at 6 mg/kg, iv once every 4 days for 3 injections after 16 days of tumor cell transplantation; format: functional

Compound `CC(=O)O[C@@H](C)/C=C\C(=O)N[C@@H]1C[C@H](C)[C@H](C/C=C(C)/C=C/[C@H]2O[C@](C)(O)C[C@@]3(CO3)[C@@H]2O)O[C@@H]1C` has a GI50 (HCT-116 [1]) of 1 nM, a GI50 (P388) of 1 nM and a GI50 (MCF7) of 1 nM. For the same compound, the GI50 (A549) was 1 nM.

In the case of `CO[C@@H]1[C@@H](/C=C/C(C)=C/C[C@@H]2O[C@H](C)[C@H](NC(=O)/C=C\[C@H](C)OC(=O)N3CCOCC3)C[C@@H]2C)OC(C)(C)C[C@@]12CO2`, the selectivity ratio [2] is reported as 1.5, the selectivity ratio [3] is reported as 4.6 and the concentration at 4 h [4] is reported as < 10 ng/mL. The selectivity ratio [5] was 15, the GI50 [6] was 12 nM and the GI50 [7] was 39 nM. The GI50 (MDA-MB-231) was 1.1 nM, the GI50 [8] was 9 nM and the GI50 (HCT-116 [1]) was 1.4 nM. The GI50 (MCF7) was 0.4 nM, the selectivity ratio [9] was 3.5 and the GI50 [10] was 4 nM.

Work on `COc1cccc2c1C(=O)c1c(O)c3c(c(O)c1C2=O)C[C@@](O)(C(=O)CO)C[C@@H]3O[C@H]1C[C@H](N)[C@H](O)[C@H](C)O1` [DOXORUBICIN] yielded a GI50 [6] of 223 nM, a GI50 [7] of 462 nM and a GI50 [8] of 276 nM. For the same compound, the GI50 (HCT-116 [1]) was 70 nM and the GI50 [10] was 109 nM.

Work on `CC(/C=C/[C@H]1OC(C)(C)C[C@@]2(CO2)[C@@H]1O)=C\C[C@@H]1O[C@H](C)[C@H](NC(=O)/C=C\[C@H](C)OC(=O)N2CCOCC2)C[C@@H]1C` yielded an inhibition in vivo at 6 mg/kg (HCT-116 [11]) of 41%, a half-life [12] of 13 h and an Activity (Mus musculus [13]) of 11%. For the same compound, the Activity (Mus musculus [14]) was “Toxic”, the Activity (Mus musculus [15]) was 10% and the MTD at 5 days [16] was 0.5 mg/kg. For the same compound, the Activity (Mus musculus [17]) was “Toxic”, the Activity (Mus musculus [18]) was “Non-toxic” and the Activity (Mus musculus [19]) was 6%. The Activity (HCT-116 [20]) was “inactive”, the concentration at 0.5 h [21] was < 10 ng/mL and the inhibition in vivo at 1 mg/kg (PC-3) was 26%.

`CC(=O)O[C@H]1C(=O)[C@@]2(C)[C@H]([C@H](OC(=O)c3ccccc3)[C@]3(O)C[C@H](OC(=O)[C@H](O)[C@@H](NC(=O)c4ccccc4)c4ccccc4)C(C)=C1C3(C)C)[C@]1(OC(C)=O)CO[C@@H]1C[C@@H]2O` [PACLITAXEL] gave an inhibition in vivo at 15 mg/kg (HCT-116 [22]) of 81%.

`CC(=O)O[C@@H](C)/C=C\C(=O)N[C@@H]1C[C@H](C)[C@H](C/C=C(C)/C=C/[C@H]2OC(C)(C)C[C@@]3(CO3)[C@@H]2O)O[C@@H]1C` gave a half-life [12] of 2 h, a selectivity ratio [2] of 1 and a selectivity ratio [3] of 2.7. The selectivity ratio [5] was 6, the GI50 [6] was 0.91 nM and the GI50 [7] was 0.44 nM. The Activity (Mus musculus [23]) was “Non-toxic”, the Activity (Mus musculus [18]) was “Non-toxic” and the GI50 (MDA-MB-231) was 0.07 nM. The GI50 [8] was 0.11 nM, the GI50 (HCT-116 [1]) was 0.07 nM and the Activity (HCT-116 [20]) was “inactive”. For the same compound, the GI50 (MCF7) was 0.02 nM, the selectivity ratio [9] was 1.6 and the inhibition in vivo at 6 mg/kg (HCT-116 [24]) was 24%. It also gave a GI50 [10] of 0.06 nM.
